Laboratory results published in paper PMC9841576, “Characterisation of C101248: A novel selective THIK-1 channel inhibitor for the modulation of microglial NLRP3-inflammasome” (Neuropharmacology, 2023).
Where two headings read alike, the source gives them in different places.

How the values were obtained:
TWIK-2 = target: T1, TWIK-2 (Homo sapiens, UniProt Q9Y257); assay: FLIPR thallium influx assay, HEK-hTWIK-2 cells; format: cell-based; settings: HEK-hTWIK-2, at 30 μM, compared to TPA controls; read-out: inhibition of constitutive activity
T1 construct: expressed in transfected cells
T1 sequence (Q9Y257 whole entry): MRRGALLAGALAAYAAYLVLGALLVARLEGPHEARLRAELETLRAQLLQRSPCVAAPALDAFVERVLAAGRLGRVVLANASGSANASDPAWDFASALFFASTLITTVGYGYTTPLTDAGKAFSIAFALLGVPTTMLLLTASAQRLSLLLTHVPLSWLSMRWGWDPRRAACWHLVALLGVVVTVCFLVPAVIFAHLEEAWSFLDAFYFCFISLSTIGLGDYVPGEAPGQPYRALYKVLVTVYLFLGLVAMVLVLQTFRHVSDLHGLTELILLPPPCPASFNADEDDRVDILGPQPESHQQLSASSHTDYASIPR
Protocol: HEK-293 cells were transfected with human THIK-1, TREK-1, TWIK-2, or mouse THIK-1 cDNA cloned into pcDNA3.1, using either Fugene HD transfection reagent (Promega) or electroporation (MaxCyte STX instrument). Cells stably expressing the relevant genes were selected based on resistance to 500 μg/ml geneticin (Gibco). For human THIK-1 and TWIK-2 expressing cells, monoclonal lines were isolated by limited dilution cloning; mouse THIK-1 and human TREK-1 expressing cells were maintained as polyclonal pools. The HEK-293 pools and monoclones stably expressing the relevant genes were maintained in DMEM (Life Technologies), supplemented with 10% FCIII (HyClone, Fetal clone III) and 500 μg/ml geneticin. A CHO-Kv2.1 cell line was purchased from Millipore (accession NM_004975) and maintained in F12 (Life Technologies), supplemented with 10% FCSIII (Thermo Scientific) and 500 μg/ml geneticin (Life Technologies). […]
A fluorescence-based thallium influx assay (Molecular Devices potassium assay kit) was used to monitor channel activity. […] Using a fluorescent imaging plate reader (FLIPR) tetra plate reader, 15 μl thallium stimulus solution was added to the cell plate and the fluorescence signal recorded every second for 1 min (excitation: 470–495 nm, emission: 515–575 nm).

ROCK-1 (h) = ROCK-1 (h) (Homo sapiens, UniProt Q13464); assay: Kinase selectivity; format: biochemical
Chain of ROCK-1 (h) (Q13464 whole entry): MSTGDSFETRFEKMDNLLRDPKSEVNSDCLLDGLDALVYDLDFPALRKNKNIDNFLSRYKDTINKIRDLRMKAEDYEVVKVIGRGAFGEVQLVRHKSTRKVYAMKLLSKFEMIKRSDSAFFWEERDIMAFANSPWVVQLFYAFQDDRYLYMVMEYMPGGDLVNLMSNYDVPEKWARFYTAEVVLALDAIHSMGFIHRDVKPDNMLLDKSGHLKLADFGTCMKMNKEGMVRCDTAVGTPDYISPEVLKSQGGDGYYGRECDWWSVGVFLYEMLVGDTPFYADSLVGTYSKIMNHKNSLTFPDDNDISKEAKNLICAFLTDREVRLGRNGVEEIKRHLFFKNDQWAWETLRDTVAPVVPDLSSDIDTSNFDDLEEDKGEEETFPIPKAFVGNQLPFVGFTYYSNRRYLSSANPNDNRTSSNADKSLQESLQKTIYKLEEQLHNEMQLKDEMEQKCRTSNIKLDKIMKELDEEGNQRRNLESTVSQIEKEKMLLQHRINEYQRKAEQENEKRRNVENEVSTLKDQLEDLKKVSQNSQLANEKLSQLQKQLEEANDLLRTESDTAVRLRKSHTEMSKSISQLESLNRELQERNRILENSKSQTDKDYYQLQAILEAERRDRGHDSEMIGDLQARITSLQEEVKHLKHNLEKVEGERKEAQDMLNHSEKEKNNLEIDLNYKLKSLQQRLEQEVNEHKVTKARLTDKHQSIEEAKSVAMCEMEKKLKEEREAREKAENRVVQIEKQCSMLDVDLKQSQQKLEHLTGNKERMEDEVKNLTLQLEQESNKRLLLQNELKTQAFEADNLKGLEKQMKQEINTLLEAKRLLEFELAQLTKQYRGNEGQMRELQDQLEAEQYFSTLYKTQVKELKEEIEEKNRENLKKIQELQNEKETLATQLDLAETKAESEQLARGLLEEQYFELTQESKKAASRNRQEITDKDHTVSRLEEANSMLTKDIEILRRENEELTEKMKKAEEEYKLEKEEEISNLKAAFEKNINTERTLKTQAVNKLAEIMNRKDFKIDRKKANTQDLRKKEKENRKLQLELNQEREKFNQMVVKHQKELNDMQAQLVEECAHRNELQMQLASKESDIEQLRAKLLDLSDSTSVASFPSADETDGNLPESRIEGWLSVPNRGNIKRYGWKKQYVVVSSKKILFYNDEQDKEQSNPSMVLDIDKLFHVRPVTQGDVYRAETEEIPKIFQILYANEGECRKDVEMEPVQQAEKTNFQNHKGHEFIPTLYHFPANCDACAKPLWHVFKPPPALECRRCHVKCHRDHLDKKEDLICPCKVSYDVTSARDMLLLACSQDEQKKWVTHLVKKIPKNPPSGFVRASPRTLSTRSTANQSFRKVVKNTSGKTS
Excerpt: (§1) Supplement mmc1.docx, table 1 | column: IC50 (μM)

Syk (h) = Syk (h) (Homo sapiens, UniProt P43405); assay: Kinase selectivity; format: biochemical
Excerpt: as §1

ROCK-2 (h) = ROCK-2 (h) (Homo sapiens, UniProt O75116); assay: Kinase selectivity; format: biochemical
Chain of ROCK-2 (h) (O75116 whole entry): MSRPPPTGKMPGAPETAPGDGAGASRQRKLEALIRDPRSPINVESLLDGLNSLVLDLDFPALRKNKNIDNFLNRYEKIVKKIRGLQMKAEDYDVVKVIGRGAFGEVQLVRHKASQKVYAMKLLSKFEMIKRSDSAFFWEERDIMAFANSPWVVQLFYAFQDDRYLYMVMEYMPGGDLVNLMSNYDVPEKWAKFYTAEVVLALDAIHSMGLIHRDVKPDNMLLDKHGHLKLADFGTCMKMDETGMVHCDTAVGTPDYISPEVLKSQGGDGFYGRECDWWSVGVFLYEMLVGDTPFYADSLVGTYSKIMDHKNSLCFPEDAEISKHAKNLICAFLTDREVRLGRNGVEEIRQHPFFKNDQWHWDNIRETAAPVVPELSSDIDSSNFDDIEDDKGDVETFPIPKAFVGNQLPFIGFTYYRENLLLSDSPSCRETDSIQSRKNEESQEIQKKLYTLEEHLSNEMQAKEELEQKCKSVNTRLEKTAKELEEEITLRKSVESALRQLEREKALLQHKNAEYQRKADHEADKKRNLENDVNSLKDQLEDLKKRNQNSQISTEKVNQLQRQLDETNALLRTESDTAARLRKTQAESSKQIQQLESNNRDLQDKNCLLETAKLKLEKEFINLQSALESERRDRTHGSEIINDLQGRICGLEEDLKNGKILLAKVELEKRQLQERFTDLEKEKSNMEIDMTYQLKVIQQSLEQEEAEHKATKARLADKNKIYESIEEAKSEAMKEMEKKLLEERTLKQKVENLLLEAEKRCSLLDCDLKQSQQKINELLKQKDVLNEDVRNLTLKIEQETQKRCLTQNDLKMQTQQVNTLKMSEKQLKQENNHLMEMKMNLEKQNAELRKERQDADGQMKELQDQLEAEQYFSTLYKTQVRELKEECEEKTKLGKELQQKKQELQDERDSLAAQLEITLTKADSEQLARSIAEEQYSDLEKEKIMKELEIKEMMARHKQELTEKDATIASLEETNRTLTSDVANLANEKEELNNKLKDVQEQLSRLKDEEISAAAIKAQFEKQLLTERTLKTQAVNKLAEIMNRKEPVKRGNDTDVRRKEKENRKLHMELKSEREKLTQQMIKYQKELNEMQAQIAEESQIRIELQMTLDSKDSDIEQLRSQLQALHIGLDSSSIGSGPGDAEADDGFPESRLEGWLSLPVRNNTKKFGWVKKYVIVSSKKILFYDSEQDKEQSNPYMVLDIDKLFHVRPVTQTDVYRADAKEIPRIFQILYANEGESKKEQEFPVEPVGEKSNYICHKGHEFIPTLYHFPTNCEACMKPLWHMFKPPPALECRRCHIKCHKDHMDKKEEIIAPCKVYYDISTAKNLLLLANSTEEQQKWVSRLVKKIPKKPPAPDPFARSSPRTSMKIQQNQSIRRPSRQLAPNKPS
Excerpt: as §1

Lck (h) = Lck (h) (Homo sapiens, UniProt P06239); assay: Kinase selectivity; format: biochemical
Chain of Lck (h) (P06239 whole entry): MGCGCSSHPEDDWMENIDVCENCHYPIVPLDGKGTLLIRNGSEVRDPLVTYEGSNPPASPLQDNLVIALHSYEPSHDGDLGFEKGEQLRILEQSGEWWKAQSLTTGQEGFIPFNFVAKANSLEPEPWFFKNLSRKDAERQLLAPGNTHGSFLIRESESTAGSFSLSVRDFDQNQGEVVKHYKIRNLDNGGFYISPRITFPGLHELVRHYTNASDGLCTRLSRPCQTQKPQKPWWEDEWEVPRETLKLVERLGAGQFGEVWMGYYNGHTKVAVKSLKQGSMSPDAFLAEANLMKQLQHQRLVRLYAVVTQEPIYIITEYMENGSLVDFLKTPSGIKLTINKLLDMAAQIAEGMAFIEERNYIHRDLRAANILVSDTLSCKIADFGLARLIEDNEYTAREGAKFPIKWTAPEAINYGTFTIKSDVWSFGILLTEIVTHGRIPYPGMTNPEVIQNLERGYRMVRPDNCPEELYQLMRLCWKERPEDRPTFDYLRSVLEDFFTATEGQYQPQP
Excerpt: as §1

PKA (h) = PKA (h) (Homo sapiens, UniProt P17612); assay: Kinase selectivity; format: biochemical
Excerpt: as §1

THIK-1 = target: T2, THIK-1 (Homo sapiens, UniProt Q9HB14); assay: Thallium flux functional wash-off assay, HEK-hTHIK-1 cells; format: cell-based
T2 construct: expressed in transfected cells
T2 sequence (Q9HB14 1-408): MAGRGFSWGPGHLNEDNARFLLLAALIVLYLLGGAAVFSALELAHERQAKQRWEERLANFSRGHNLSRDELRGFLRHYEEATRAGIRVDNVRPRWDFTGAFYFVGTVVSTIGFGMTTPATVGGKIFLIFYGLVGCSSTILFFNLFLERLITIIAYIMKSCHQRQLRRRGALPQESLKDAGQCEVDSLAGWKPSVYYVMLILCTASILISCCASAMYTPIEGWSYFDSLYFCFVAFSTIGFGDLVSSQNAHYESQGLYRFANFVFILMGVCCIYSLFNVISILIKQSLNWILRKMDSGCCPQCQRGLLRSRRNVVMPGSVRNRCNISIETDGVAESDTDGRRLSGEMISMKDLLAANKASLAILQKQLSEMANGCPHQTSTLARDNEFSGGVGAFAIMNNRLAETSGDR
Protocol: A fluorescence-based thallium influx assay (Molecular Devices potassium assay kit) was used to monitor channel activity. In brief, component A was reconstituted in 17 ml of chloride-free assay buffer (130 mM sodium D-gluconate, 5 mM potassium D-gluconate, 2 mM calcium D-gluconate, 1 mM magnesium D-gluconate, 5 mM NaHCO3, 20 mM HEPES; pH adjusted to 7.4 with NaOH and filtered (0.45 μm filter)) and component C reconstituted in 30 μl of DMSO. Components A and C were combined, and probenecid was added (Life Technologies; final assay concentration (FAC) 4.75 mM for HEK cell lines and 2.47 mM for CHO-Kv2.1) to provide the final dye solution. Media was removed from the cell plates and replaced with dye (20 μl/well) and the plates were incubated at room temperature in the dark for 60 min. On the day of the assay, a diluted compound plate (3x FAC in 1.5% DMSO) was created. Control wells contained either DMSO vehicle (1.5%, 3x FAC) or tetrapentylammonium chloride (TPA; Sigma, 258962; 1.5 mM in 1.5% DMSO, 3x FAC). A 3x thallium stimulation plate was also prepared, to provide a FAC of either 1 mM (human THIK-1) or 3 mM (mouse THIK-1, TREK-1, TWIK-2) thallium sulphate (in assay buffer). For Kv2.1, the FAC of thallium sulphate was 2.6 mM and this was prepared in assay buffer containing potassium sulphate (Sigma P9458; FAC 23.3 mM). Following 60 min of dye loading, 10 μl from the 3x FAC compound plate was added into the cell plate, which was then incubated for 15 min at room temperature in the dark. Using a fluorescent imaging plate reader (FLIPR) tetra plate reader, 15 μl thallium stimulus solution was added to the cell plate and the fluorescence signal recorded every second for 1 min (excitation: 470–495 nm, emission: 515–575 nm).
For the functional wash-off assay, plates were tested in parallel that were run as standard (no wash) with plates that had undergone an additional assay buffer wash and incubation period following compound addition. Briefly, after a 15 min compound incubation, plates were either moved to the FLIPR for immediate thallium addition (standard) or the plates were washed with assay buffer to remove compound solutions (50 μl/well addition and removal), 30 μl/well assay buffer added and the plates incubated for 60 min, followed by thallium addition on the FLIPR (60 min wash).

- inhibition at 30 µM (TWIK-2): 7%
- IC50 (ROCK-1 (h)): > 10 µM
- IC50 (Syk (h)): > 10 µM
- IC50 (ROCK-2 (h)): > 10 µM
- IC50 (Lck (h)): > 10 µM
- IC50 (PKA (h)): > 10 µM
- Hill slope (nH) (THIK-1; 60 min wash): 0.54
- maximum inhibition (60 min wash) (THIK-1; 60 min wash): 93%
- lower potency after 60 min wash-off compared to standard format (THIK-1; 60 min wash vs no wash): 3.4 fold
- IC50 (THIK-1; compound removed, 60 min incubation in buffer before thallium, read-out: IC50 (60 min wash)): 0.096 µM
- Hill slope (nH) (THIK-1; no wash): 1.3
- maximum inhibition (no wash) (THIK-1; no wash): 101%
- IC50 (THIK-1; standard format, 15 min compound incubation, immediate thallium addition, read-out: IC50 (no wash)): 0.028 µM
Structure (SMILES): Nc1nonc1-c1nc2ccccc2n1Cc1ccncc1 [C101248]
